melting point [°C]	SMILES
167 to 168	Cc1nc(-c2c(C)c(C#N)c3nc(C4CC4)oc3c2N2CC[C@H](N(C)C)C2)cs1
193 to 194	CC(C)CN1C(=O)c2cnc(-c3ccccc3)nc2N(C(=O)CN2CCCCC2)c2ccccc21
151 to 155	COc1ccc(COc2ccc(C=C3SC(=S)N(CC(=O)O)C3=O)cc2OCc2ccc(OC)cc2)cc1
117 to 121	O=C(Cn1c(-c2ccc([N+](=O)[O-])cc2)ncc(NC(=O)OCc2ccccc2)c1=O)NC(Cc1ccccc1)C(=O)C(F)(F)F (configuration not stated)
134 to 136	CCOC(=O)c1nc(-c2cccc(Cl)c2)c(-c2ccc(=O)n(C(C)C)n2)s1
65 to 68	CCCCCCCCCCCCCCCCCCOc1cc(C(=O)OC)c([N+](=O)[O-])c(C(=O)OC)c1
184 to 185	CCCCc1ncc(/C=C(\Cc2cccs2)C(=O)O)n1Cc1cccc(Cl)c1Cl
202	O=C1NC2(NC1=O)Oc1ccccc1O2
69 to 74.5	C[Si](C)(C)NS(C)(=O)=O
96 to 99	CCCN(CCC)C(=O)C(C)n1c(-c2ccc(Cl)cc2)nc2cccnc21 (configuration not stated)
146 to 148	CC(C)[C@H](NC(=O)OCc1csc(N2CCOCC2)n1)C(=O)N[C@@H](Cc1ccccc1)[C@@H](O)C[C@H](Cc1ccccc1)NC(=O)OCc1cncs1
151 to 152	C#CCSC1NN=C(c2ccncc2)N1c1ccccc1 (configuration not stated)
217 to 219	CCOC(=O)C1(C)C(=O)Nc2cc(NC(=O)c3ccncc3)c([N+](=O)[O-])cc21 (configuration not stated)
159 to 160	O=C(OCN1C(=O)c2ccccc2S1(=O)=O)c1c(Cl)cncc1Cl
188 to 189	O=C(O)Cn1cc(Cc2nc3c(F)c(F)cc(F)c3s2)c2cc(Cl)ccc21
184 to 187	CC1(C)OC(=O)Nc2ccc(-c3cc(CC#N)ccc3F)cc21
146 to 147	CCOc1c(C(=O)O)oc2c3ccccc3n(-c3ccccc3)c12
187 to 188	CCn1nnc(Cc2ccc(NC(=O)/C=C/c3cnn(C)c3-c3ccc(F)cc3)cc2)n1
196 to 197	CC(=O)N(C)c1cccc(-c2ccc3nnc(N)n3n2)c1
284 to 286	O=C1CNC(c2ccc([N+](=O)[O-])cc2)=NN1
135	COc1cccc2c1CC(C(=O)NCCOc1ccc(C(=O)OC(C)(C)C)cc1)N2S(=O)(=O)c1ccc(-c2ccc(F)cc2F)cc1 (configuration not stated)
84 to 85	C#CCOc1c(Cl)cc(Cl)cc1C(=O)NCC1CCCN1C1CCCCC1 (configuration not stated)
98 to 100	COc1cccc(CCc2c(CC#N)ccc(OC)c2OC)c1
106 to 108	CCN(CC)c1ccc(S(=O)(=O)NCCCCC(=O)O)cc1

melting point [°C]	SMILES
137 to 138	COc1ccc(-c2nn(Cc3ccc(OCc4nc(-c5ccccc5)oc4C)cc3)cc2CCC(=O)O)cc1
118 to 120	CCOC(=O)c1c2ccc(Cl)cc2c(-c2ccccc2)n1CC(=O)N(CC)CC
175 to 176	Nc1ccc(-c2nc(-c3ccco3)no2)c(Cl)c1
93 to 94	N#CCCCCCCCn1c(-c2ccccc2)nc(-c2ccccc2)c1-c1ccccc1
112 to 114	CCCCCCCCCCCC(=O)NC1C(C)C(c2ccccc2)NC(c2ccccc2)C1C (configuration not stated)
126	CC(C)(C)NS(=O)(=O)c1ccccc1C(=O)CF
85 to 86	CCC(=O)NCC1CCN(CCOc2ccccc2)CC1
58 to 59	CCOC(=O)c1sc(Cl)nc1C(F)(F)F
181 to 182	CC12CCC3c4ccc(O)cc4CCC3C1CC(O)C2 (configuration not stated)
152 to 154	O=C(O)CCCCC=Cc1cc(-c2ccccc2)c2ccccc2n1
79 to 83	c1ccc2[nH]c(CCC(CCCc3[nH]c4ccccc4c3CCN3CCCCC3)CCN3CCCCC3)cc2c1 (configuration not stated)
99 to 100	NC(=S)C(F)(F)c1ccccc1
99 to 100	CCOC(=O)CN1c2ccccc2N(C)C(=O)c2cccnc21
144 to 146	O=S1(=O)C=CC=CC=N1
233	COc1ccc(C(=O)Nc2c(Cl)cncc2Cl)c2cc(C)oc12
153 to 155	CC(=O)N[C@H]1CCCc2ccccc21
77	CC(C)c1nc(-c2c(F)c(F)cc(F)c2F)cc(-c2ccc(F)cc2)c1C=C(Br)Br
78.5 to 79.5	COC(c1cc(C)no1)c1ccccc1COc1cc(Cl)ccc1Cl (configuration not stated)
105 to 107	O=C(Nc1ccc(Cl)cn1)c1cc(Cl)ccc1NCC1CCN(C(=O)N2CCOCC2)CC1
104 to 106	CC(C)(COc1ncc(C(F)(F)F)cc1Cl)C(=O)C(Oc1ccc(F)cc1)n1cncn1 (configuration not stated)
160 to 164	O=C1CCCc2c1c1cccc3c1n2CCC3
125 to 126	COc1cc(OCCCCc2cn(-c3ccc(C(F)(F)F)cn3)nc2C(C)C)ccc1CCC(=O)O
143 to 144	CNCNc1cc(C(N)=O)ccc1C(C)(C)C
115 to 117	O=S(=O)(Nc1cccc(OCc2cccc(-c3ccccc3)n2)c1)C(F)(F)F

melting point [°C]	SMILES
233 to 236	CCOC(=O)N1CCC(n2nnnc2CCC(C)Oc2ccc3nc4[nH]c(=O)[nH]c4cc3c2)CC1 (configuration not stated)
83 to 85	N#CC(Cn1ccnc1)(c1ccccc1)c1ccccn1 (configuration not stated)
113 to 116	O=C(CC1CCC2(CC1)OCCO2)N1CCN(c2ccccn2)CC1
204 to 206	CC(=O)SCC(Cc1ccccc1)C(=O)Nc1cc(C(=O)O)ccc1Cl (configuration not stated)
140 to 141	NC(=O)CCCON1CCNC1=Nc1c(Cl)cccc1Cl
54.5 to 56	CCCCCCCCCCCc1nc2c(O)c(Cl)c(C)c(Cl)c2cc1CCCCCCCCCC
55	CCCCCc1ccc(C(O)(c2c(C)cc(C)c(C)c2OC)C(C)C)cc1 (configuration not stated)
235	NS(=O)(=O)c1ccc(-n2c(-c3ccccc3)csc2=S)cc1
44 to 45	CSc1ccc(CC#N)cc1
228 to 230	Cc1ccc(NC(=O)N(C)Cc2cccc3c2CN(C2CCC(=O)NC2=O)C3=O)cc1C (configuration not stated)
214 to 215	O=C1c2ccccc2C(=O)N1CC(=O)N1c2ccccc2N(Cc2ccccc2)C(=O)C2(Cc3ccccc3)CCCC12 (configuration not stated)
102 to 109	CC(C)N(CCC(c1cccs1)c1ccc(O)cc1O)C(C)C (configuration not stated)
103 to 112	COCCOc1cccc(-n2cc(-c3ccc(O)cc3)c3c(N)ncnc32)c1
94 to 95	N#CCCNC(=S)C1=CC(CF)(CF)Oc2ccc(C(F)(F)C(F)(F)C(F)(F)F)cc21
178 to 180	CCCN1C(=O)N2C[C@@H](Cc3ccccc3)N=C2c2[nH]c(CSCC)nc21
150	COc1ccc(C(=O)c2ccccc2)cc1C(=O)O
208	O=C1c2cccc(NC(=S)Nc3cc[nH]n3)c2C2CCCCN12 (configuration not stated)
112 to 114	CCCCCCCCCCCCc1cc(NC(=O)Nc2c(C(C)C)cccc2C(C)C)on1
172 to 173	C[C@]1(COc2ccc(N3CCC(COCc4ccc(C(F)(F)F)cc4)CC3)cc2)Cn2cc([N+](=O)[O-])nc2O1
118 to 119	CCOC(=O)c1c(CCCCn2cncn2)nc2sc3cnccc3c2c1-c1ccc(OC)c(OC)c1
199 to 202	CNC(C)C1CCN(c2nc3c(cc2F)c(=O)c(C(=O)O)cn3C2CC2)C1 (configuration not stated)
223 to 226	CCOC(=O)CN[C@H]1CSc2ccccc2N(CC(=O)O)C1=O
274 to 276	Cc1ccccc1Cn1c(=O)[nH]c2cc(Cl)cc(Cl)c2c1=O
286 to 288	O=C(O)c1cc(C(=O)O)cc(S(=O)(=O)Nc2ccc(F)c(C(F)(F)F)c2)c1

melting point [°C]	SMILES
185 to 187	CN(C)C(=O)Cc1nc(-c2ccccc2)nc2c1c1ccc(Cl)cc1n2C
260 to 261	CN1CC(=O)Nc2ccc(Br)cc2C1=O
115 to 117	CCc1sc(N2C(=O)c3ccccc3C2=O)c(C(=O)c2ccc(Cl)cc2)c1C
129 to 130	CCCCn1c(C)c(C)cc(NC(=O)c2ccc(F)cc2)c1=O
264 to 267	COC1=CC(=O)c2cc(O)ccc2C1=O
186 to 187	COc1ccc2c(c1)C(=NN)Cc1c(C#N)cccc1S2
176 to 177	COc1ccc(C(C#N)CNC(=O)C(N)=O)cc1OC1CCCC1 (configuration not stated)
128	CCC1c2cc(F)ccc2-c2ccccc2N1S(=O)(=O)c1ccc(OC(=O)CC(C)(C)C)cc1 (configuration not stated)
130	CCOC(=O)C1=C(c2ccc(OC)c(OC)c2)c2ccccc2C1=O
52 to 53	CCCOc1ccc(C=CCCCCC(=O)O)cc1
136 to 137	COc1cc2oc(=O)c(CCN3CCN(c4ccccc4)CC3)c(C)c2c(OC)c1OC
127 to 128	CCCNC(=O)C1C=C2CC=C(OC)C=C2N1CCNC(C)=O (configuration not stated)
69 to 70	CCCCCCCCCCOc1ccc2c(=O)c3cccc(C(=O)OCC)c3oc2c1CCC(=O)OCC
136 to 137	Cc1oc(-c2ccccc2)nc1COc1ccc(Sc2nc(-c3ccccc3)c(CCC(=O)O)o2)cc1
140 to 144	CCCCc1nc(Cl)c(C(=O)O)n1Cc1ccc2oc(-c3ccccc3-c3nnn[nH]3)c(OC)c2c1
166 to 168	CP(C)(=O)CNc1cc(Oc2ccc(C(F)(F)F)cc2Cl)ccc1[N+](=O)[O-]
250 to 252	O=c1[nH]cnc2cc(Cl)c(Oc3ccc(Cl)cc3)cc12
130	CS(=O)(=O)Nc1ccc(CCOc2ccc(C=C3SC(=O)NC3=O)cc2)cc1
174 to 177	Nc1cnc2ccc(-c3ccccc3)cc2c1Nc1ccccc1Br
199 to 201	Cc1oc(-c2ccccc2)nc1CCOc1ccc(C[C@H](NC(=O)C=Cc2ccco2)C(=O)O)cc1
162	CCOc1nc2ccnn2c2ncccc12
176	Cn1cnc(S(=O)(=O)Nc2ccc(OCCN3CCN(c4nsc5ccccc45)CC3)cc2)c1
189 to 190	CCOC(=O)c1c2n(c3c(Br)c(N4CCN(C)CC4)c(F)cc3c1=O)C(C)S2 (configuration not stated)
259 to 262	COc1ccc2c(Cc3c(Cl)cncc3Cl)n[nH]c(=O)c2c1

SMILES	melting point [°C]
Clc1ccc2c(c1)C(c1ccccc1)=NCc1n[nH]cc1-2	241 to 243
